In US20120029037A1, “ANIMAL ECTOPARASITE-CONTROLLING AGENT” (SUMITOMO CHEMICAL COMPANY, LIMITED, priority 2010, published 2012):

Assays:
Format in all cases: in vivo
[1] = tested on: Ticks (Haemaphysalis longicornis); assay: Pesticidal activity on ticks in filter paper test; details: 48 h, 100 mg/m^2, non-blood-fed young ticks, 2 days later
Experimental: Pesticidal Activity on Ticks (Haemaphysalis longicornis) in Filter Paper Test
Each (5 mg) of the present hydrazide compounds (5), (8), (11) and (12) was dissolved in acetone (10 mL), and this acetone solution (1 mL) was uniformly applied onto one side of a filter paper (TOYO No. 2; 5×10 cm; the surface area of the filter paper was 50 cm^2, and thus the amount of the present hydrazide compound applied was 100 mg/m^2). After drying, said filter paper was folded, and the both sides of the paper were clipped to form a bag. Into this bag, test ticks (Haemaphysalis longicornis, non-blood-fed young ticks, 10 ticks/group) were added, and the opening was clipped to seal the bag. Two (2) days later, the number of dead ticks was examined and the mortality was calculated by the following formula:
Mortality (%)=100×(number of dead ticks/number of ticks tested)

[2] = tested on: Cat-infested cat fleas (Ctenocephalides felis); assay: Dropping application against cat-infested cat fleas; details: dropping on skin; for Flea control rates (%) at 2 days after the application: vs infestation before application; for Flea control rates (%) at 16 days after the application: vs placebo group
Experimental: Propping Application Against Cat-Infested Cat Fleas (Ctenocephalides felis)
The previous day before dropping application, 50 test fleas (cat flea adults) were deposited on a cat. Before the dropping application, infested fleas were counted.
(§1) The present hydrazide compound (5) (0.75 g or 1.5 g) was dissolved in diethylene glycol monoethyl ether (6.0 g) to prepare a test solution. Said test solution was directly dropped on the skin of the neck and back of the cat while pushing aside fur thereon on at a rate of 0.1 ml per 1 kg of the cat's body weight (dose amount: 10 or 20 mg/kg). This is referred to as a test group. On the other hand, diethylene glycol monoethyl ether alone was applied dropwise to a placebo group.
Two (2) days after the application, the number of living fleas, which were infesting the cats, was examined. When the examination was completed, all infested fleas were removed from the cats.
Fourteen (14) days later, 50 test fleas were re-deposited on each cat. Two (2) days after the re-deposit, the number of living fleas, which were infesting the cats, was examined. When the examination was completed, all infested fleas were removed from the cats. The infestation rate and control rate were calculated by the following formulae: […]
(i) Method of calculating infestation rate and control rate at the initial stage (2 days) after the application:
Infestation rate (%) at X days after application=(number of living fleas at X days/number of living fleas before application)×100
Control rate (%) at X days after application=(infestation rate of test group before application−infestation rate of test group at X days)/infestation rate of test group before application×100
(ii) Method of calculating infestation rate and control rate at 16 days after the application:
Infestation rate (%) at X days after application=(number of living fleas at X days/number of fleas deposited)×100
Control rate (%) at X days after application=(infestation rate of placebo group at X days−infestation rate of test group at X days)/infestation rate of placebo group at X days×100
(§2) In addition, if an infestation rate of a test group is higher than a placebo group, then the control rate is deemed to be 0%.

[3] = tested on: Mouse-infested cat fleas (Ctenocephalides felis); assay: Dropping application against mouse-infested cat fleas; details: 0.5% w/v solution 200 μL dropwise along dorsal line, 2 days later
Experimental: Propping Application Against Mouse-Infested Cat Fleas (Ctenocephalides felis)
The present hydrazide compound (5) (25 mg) was dissolved in propylene carbonate (5 mL) to prepare a 0.5% w/v solution. Said solution (200 μL) was applied dropwise along the dorsal line of a mouse with a pipette. To a control group, propylene carbonate (200 μL) alone was applied. Each application was repeated 3 times per group.
After the dropping application, 20 cat fleas were deposited on each mouse. Two (2) days later, the number of dead cat fleas was examined and the mortality was calculated by the following formula:
(§3) Mortality (%)=100×(number of dead cat fleas/number of cat fleas tested)

[4] = tested on: Mouse-infested ticks (Haemaphysalis longicornis); assay: Oral administration against mouse-infested ticks; details: 20 mg in 10 mL test solution at 10 mL per 1 kg body weight, 2 days after administration
Experimental: Oral Administration Against Mouse-Infested Ticks (Haemaphysalis longicornis)
The previous day before oral administration, 30 test ticks (Haemaphysalis longicornis, young ticks) were deposited on a mouse. Before the oral administration, uninfested ticks were removed.
(§4) The present hydrazide compound (5) (20 mg) was dissolved in dimethylformamide (680 mg), and thereto pure water or a corn oil was added to prepare a test solution (10 mL). Said test solution was orally administered to the mouse at the rate of 10 mL per 1 kg of the body weight of the mouse with a gastric sonde. To a control group, a 7% dimethylformamide/corn oil solution alone was orally administered. Each administration was repeated 3 times per group.
Two (2) days after the administration, the number of dead ticks was examined and the mortality was calculated by the following formula:
Mortality (%)=100×(number of dead ticks/infested ticks before oral administration)

[5] = tested on: Dog-infested ticks (Haemaphysalis longicornis); assay: Dropping application against dog-infested ticks; details: dropping on skin, 16 days after application, vs placebo group
Experimental: Propping Application Against Dog-Infested Ticks (Haemaphysalis longicornis)
as §1, with “(0.75” for “(0.75 g”, “dog” for “cat”, “thereon” for “thereon on”, “dog's” for “cat's”
Fourteen (14) days later, 100 test ticks were deposited on each dog. Two (2) days after the deposit, the number of living ticks, which were infesting the dogs, was examined. When the examination was completed, all infested ticks were removed from the dogs. The infestation rate and control rate were calculated by the following formulae: […]
Method of calculating infestation rate and control rate at 16 days after the application:
Infestation rate (%) at X days after application=(number of living ticks at X days/number of ticks deposited)×100
Control rate (%) at X days after the application=(infestation rate of placebo group at X days−infestation rate of test group at X days)/infestation rate of placebo group at X days×100
as §2

[6] = tested on: Mouse-infested cat fleas (Ctenocephalides felis); assay: Oral administration against mouse-infested cat fleas; details: 20 mg in 10 mL test solution at 10 mL per 1 kg body weight, 2 days later
Experimental: Oral Administration Against Mouse-Infested Cat Fleas (Ctenocephalides felis)
as §4, with “at a” for “at the”
After the oral administration, 20 cat fleas were deposited on each mouse. Two (2) days later, the number of cat fleas was examined and the mortality was calculated by the following formula:
as §3

[7] = tested on: Mouse-infested ticks (Haemaphysalis longicornis); assay: Dropping application against mouse-infested ticks; details: 0.1% w/v solution 200 μL dropwise to whole body surface, 2 days after application
Experimental: Propping Application Against Mouse-Infested Ticks (Haemaphysalis longicornis)
The previous day before dropping application, 30 test ticks (Haemaphysalis longicornis, young ticks) were deposited on a mouse. Before the dropping application, uninfested ticks were removed.
The present hydrazide compound (5) (5 mg) was dissolved in a mixture (5 mL) of propylene carbonate and diethylene glycol monoethyl ether in equal amounts to prepare a 0.1% w/v solution. Said solution (200 μL) was applied dropwise to the whole body surface of a mouse with a pipette. To a control group, the mixture (200 μL) alone was applied. Each application was repeated 3 times per group.
Two (2) days after the application, the number of dead ticks was examined and the mortality was calculated by the following formula:
Mortality (%)=100×(number of dead ticks/infested ticks before dropping application)

CCCCCC(=O)NNc1cc(C2=NOC(c3cc(Cl)cc(Cl)c3)(C(F)(F)F)C2)ccc1Cl (centres unmarked) [(12), N′-{5-[5-(3,5-dichlorophenyl)-5-trifluoromethyl-4,5-dihydroisoxazol-3-yl]-2-chlorophenyl}hexanohydrazide]
mortality at 100 mg/m2 [1]: ≥ 90%

CC(C)(C)C(=O)NNc1cc(C2=NOC(c3cc(Cl)cc(Cl)c3)(C(F)(F)F)C2)ccc1Cl (centres unmarked) [(8), N′-{5-[5-(3,5-dichlorophenyl)-5-trifluoromethyl-4,5-dihydroisoxazol-3-yl]-2-chlorophenyl}pivalohydrazide]
mortality at 100 mg/m2 [1]: ≥ 90%

CCCCC(=O)NNc1cc(C2=NOC(c3cc(Cl)cc(Cl)c3)(C(F)(F)F)C2)ccc1Cl (centres unmarked) [(11), N′-{5-[5-(3,5-dichlorophenyl)-5-trifluoromethyl-4,5-dihydroisoxazol-3-yl]-2-chlorophenyl}pentanohydrazide]
mortality at 100 mg/m2 [1]: ≥ 90%

CC(C)CC(=O)NNc1cc(C2=NOC(c3cc(Cl)cc(Cl)c3)(C(F)(F)F)C2)ccc1Cl (centres unmarked) [Compound (5), N′-{2-chloro-5-[5-(3,5-dichlorophenyl)-5-trifluoromethyl-4,5-dihydroisoxazol-3-yl]phenyl}isovalerohydrazide]
mortality at 100 mg/m2 [1]: ≥ 90% | Flea control rates (%) at 2 days after the application ([2]; dose 10 mg/kg): 83% | Flea control rates (%) at 16 days after the application ([2]; dose 10 mg/kg): 92% | Flea control rates (%) at 2 days after the application ([2]; dose 20 mg/kg): 92% | Flea control rates (%) at 16 days after the application ([2]; dose 20 mg/kg): 95% | Mortality [3]: ≥ 70% | Mortality [4]: ≥ 90% | Tick control rates (%) at 16 days after the application ([5]; dose 10 mg/kg): 93% | Tick control rates (%) at 16 days after the application ([5]; dose 20 mg/kg): 100% | Mortality [6]: ≥ 90% | Mortality [7]: ≥ 70%
